Here are results for 36 compounds from patent publication US20120059162A1, “FUSED IMIDAZOLE DERIVATIVE HAVING TTK INHIBITORY ACTION” (Oncotherapy Science, Inc., priority 2009, published 2012).

One assay relates to A549. In words: A549 assay: screening of cancer cell growth inhibiting compound. In kind it is cell-based. The note with it: Homo sapiens, 72 h; A549 cells, three days, WST-8; read-out: A549 IC50. Summed up:
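A549 cells (1×10^4/ml) in D-MEM with 10% FBS were pre-incubated one day at 37 °C, then exposed to compound dilutions for three further days. Viable cell number read by WST-8 (1–4 hours), absorbance 450 nm (reference 620 nm); inhibition calculated relative to untreated wells.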

The target of the next assay is T1, TTK (Homo sapiens, UniProt P33981).
T1 sequence (P33981 1-857): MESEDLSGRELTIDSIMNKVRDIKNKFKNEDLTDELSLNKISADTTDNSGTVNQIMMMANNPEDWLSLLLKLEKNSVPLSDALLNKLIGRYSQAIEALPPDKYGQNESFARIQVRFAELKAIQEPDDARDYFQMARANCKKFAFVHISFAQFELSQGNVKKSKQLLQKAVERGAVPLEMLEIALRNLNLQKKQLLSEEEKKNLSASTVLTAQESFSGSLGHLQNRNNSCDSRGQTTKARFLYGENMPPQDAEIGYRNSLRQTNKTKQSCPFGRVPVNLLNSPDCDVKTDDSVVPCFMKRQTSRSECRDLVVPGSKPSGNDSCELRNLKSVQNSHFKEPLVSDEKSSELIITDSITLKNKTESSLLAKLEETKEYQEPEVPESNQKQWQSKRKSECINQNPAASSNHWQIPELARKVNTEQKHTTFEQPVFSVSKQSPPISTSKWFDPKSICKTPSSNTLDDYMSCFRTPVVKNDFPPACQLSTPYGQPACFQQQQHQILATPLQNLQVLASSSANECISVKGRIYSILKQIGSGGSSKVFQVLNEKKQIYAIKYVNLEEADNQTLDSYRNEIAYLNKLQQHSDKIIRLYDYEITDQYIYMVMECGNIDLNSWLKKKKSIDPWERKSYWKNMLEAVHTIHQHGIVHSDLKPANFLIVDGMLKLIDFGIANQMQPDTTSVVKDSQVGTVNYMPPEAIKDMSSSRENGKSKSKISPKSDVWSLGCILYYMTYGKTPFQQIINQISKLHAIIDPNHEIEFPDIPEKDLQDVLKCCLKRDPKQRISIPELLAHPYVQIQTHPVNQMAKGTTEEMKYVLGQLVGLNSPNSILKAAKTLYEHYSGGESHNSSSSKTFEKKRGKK
In words: TTK assay: screening of TTK kinase activity suppressing action using p38 MAPK peptide. In kind it is biochemical. The conditions noted are these: p38 MAPK peptide substrate; read-out: TTK IC50. As to the method: Screening of a compound having a TTK kinase activity suppressing action using p38 MAPK peptide
A test substance 1.0 μL (solvent: 10% (v/v) DMSO), TTK solution 5 μL (composition: 4 μg/ml TTK, 25 mM Tris-HCl, pH7.5, 5 mM β-glycerophosphate, 2 mM DTT, 0.1 mM Na3VO4, 5 mM MgCl2, 0.1% (w/v)BSA) and a substrate solution 5 μL (composition: 60 μM p38 MAPK peptide, 60 μM ATP, 25 mM Tris-HCl, pH7.5, 5 mM β-glycerophosphate, 2 mM DTT, 0.1 mM Na3VO4, 5 mM MgCl2, 0.1% (w/v)BSA) were mixed in the wells of a 384-well microtiter plate (manufactured by Corning Incorporated) made of polypropylene and loaded in a constant temperature and humidity room.
From the resultant mixture, an aliquot of 1.7 μL was taken out and mixed with the reaction terminating solution (60 μl) in the wells of a 384-well microtiter plate (manufactured by Corning Incorporated) made of polypropylene. Thereafter, 40 μL of the mixture was transferred to a 384-well black NeutrAvidin plate (PIERCE), sealed and incubated under room temperature for 30 minutes. […] Similarly, the plate was washed with TTBS (100 μL) three times, 40 μl of a secondary antibody solution (Eu-N1 labeled Anti-mouse IgG (Perkin Elmer, #AD0124)) was added and incubated under room temperature for 30 minutes. After the plate was washed with TTBS (100 μL) five times, 40 μL of an enhance solution (Perkin Elmer) was added and incubated under room temperature for 5 minutes. […] Based on the fluorescence value in the absence of a test substance, the suppression activity of a test substance was measured.

Usually IC50 stands for the concentration that inhibits the measured activity by half. In the case of `CC(Nc1cc(NCC2CCOCC2)c2ncc(-c3ccc(C(=O)NC4CC4)cc3)n2n1)C(C)(C)C` (stereo not drawn) [Example 2-60], the values for the IC50 with A549 and at TTK were no more than 50 nM and 4.6 nM, respectively.
Consider `CC(Nc1cc(NCC2CCOCC2)c2ncc(-c3ccc(C(=O)NC4CC4)cc3)n2n1)C(F)(F)F` (stereo not drawn) [Example 2-61], for which the IC50 is no more than 50 nM in the assay on A549 and 5.1 nM on TTK.
With `O=C(NC1CC1)c1ccc(-c2cnc3c(NCC4CCOCC4)cc(N4CCCC4CO)nn23)cc1` (stereo not drawn) [Example 2-62], the results for the IC50 with A549 and on TTK were 50 to 500 nM and 8.7 nM, respectively.
Consider `CC1CCCCC1Nc1cc(NCC2CCOCC2)c2ncc(-c3ccc(C(=O)NC4CC4)cc3)n2n1` (stereo not drawn) [Example 2-63], for which the figures for the IC50 in the assay with A549 and at TTK were no more than 50 nM and 2.9 nM, respectively.
`O=C(NC1CC1)c1ccc(-c2cnc3c(NCC4CCOCC4)cc(NC45CC6CC(CC(C6)C4)C5)nn23)cc1` [Example 2-64]: the results for the half-inhibitory concentration (IC50) in the assay on A549 and on TTK were no more than 50 nM and 1.9 nM, respectively.
`COC[C@@H]1CCCN1c1cc(NCC2CCOCC2)c2ncc(-c3ccc(C(=O)NC4CC4)cc3)n2n1` [Example 2-66]: the IC50 with A549 is 50 to 500 nM; at TTK it was 4.5 nM.
For `O=C(NC1CC1)c1ccc(-c2cnc3c(NCC4CCOCC4)cc(NC4CCC(F)(F)CC4)nn23)cc1` [Example 2-67] the same measures were 50 to 500 nM and 3.7 nM.
Regarding `CCC(C)(C)Nc1cc(NCC2CCOCC2)c2ncc(-c3ccc(C(=O)NC4CC4)cc3)n2n1` [Example 2-68], the IC50 was no more than 50 nM in the assay with A549 and 2.9 nM at TTK.
Regarding `O=C(NC1CC1)c1ccc(-c2cnc3c(NCC4CCOCC4)cc(NC4CCCCC4O)nn23)cc1` (stereo not drawn) [Example 2-70], the IC50 with A549 was 50 to 500 nM; at TTK it was 4.5 nM.
In the case of `NC1CCCCC1Nc1cc(NCC2CCOCC2)c2ncc(-c3ccc(C(=O)NC4CC4)cc3)n2n1` (stereo not drawn) [Example 2-71], the IC50 is 1000 to 10000 nM in the assay with A549 and 9.4 nM at TTK.
`CC1(Nc2cc(NCC3CCOCC3)c3ncc(-c4ccc(C(=O)NC5CC5)cc4)n3n2)CCS(=O)(=O)C1` (stereo not drawn) [Example 2-72]: the IC50 in the assay with A549 was 50 to 500 nM; at TTK, 3.9 nM.
Take `O=C(NC1CC1)c1ccc(-c2cnc3c(NCC4CCOCC4)cc(NC4C5CC6CC(C5)CC4C6)nn23)cc1` (stereo not drawn) [Example 2-73]: the IC50 in the assay on A549 is 50 to 500 nM; at TTK, 3.5 nM.
Regarding `CC1(Nc2cc(NCC3CCOCC3)c3ncc(-c4ccc(C(=O)NC5CC5)cc4)n3n2)CCCCC1` [Example 2-74], the concentration for half-maximal inhibition (IC50) is no more than 50 nM in the assay on A549 and 2.6 nM on TTK.
In the case of `CC1(Nc2cc(NCC3CCOCC3)c3ncc(-c4ccc(C(=O)NC5CC5)cc4)n3n2)CCCC1` [Example 2-75], the IC50 with A549 is no more than 50 nM; at TTK, 3.6 nM.
For `C#CC(CC)(CC)Nc1cc(NCC2CCOCC2)c2ncc(-c3ccc(C(=O)NC4CC4)cc3)n2n1` [Example 2-76] the same measures were 500 to 1000 nM and 18.9 nM.
For `C#CC1(Nc2cc(NCC3CCOCC3)c3ncc(-c4ccc(C(=O)NC5CC5)cc4)n3n2)CCCCC1` [Example 2-77], in that order: 500 to 1000 nM and 21.3 nM.
Consider `CC(C)C(Nc1cc(NCC2CCOCC2)c2ncc(-c3ccc(C(=O)NC4CC4)cc3)n2n1)C(F)(F)F` (stereo not drawn) [Example 2-78], for which the results for the 50% inhibitory concentration (IC50) in the assay on A549 and at TTK were no more than 50 nM and 3.5 nM, respectively.
For `CC1(Nc2cc(NCC3CCOCC3)c3ncc(-c4ccc(C(=O)NC5CC5)cc4)n3n2)CCOCC1` [Example 2-79], the IC50 in the assay on A549 is 50 to 500 nM; at TTK, 5.9 nM.
For `O=C(NC1CC1)c1ccc(-c2cnc3c(NCC4CCOCC4)cc(NC4CCCC(F)(F)C4)nn23)cc1` (stereo not drawn) [Example 2-80], the IC50 in the assay on A549 is no more than 50 nM; on TTK it was 4 nM.
For the compound `CC(C)(C)CC(C)(C)Nc1cc(NCC2CCOCC2)c2ncc(-c3ccc(C(=O)NC4CC4)cc3)n2n1` [Example 2-81], the IC50 in the assay on A549 is no more than 50 nM; at TTK it was 4 nM.
For `CC(C)C(C)(C)Nc1cc(NCC2CCOCC2)c2ncc(-c3ccc(C(=O)NC4CC4)cc3)n2n1` [Example 2-82] the same measures were no more than 50 nM and 6 nM.
For `O=C(NC1CC1)c1ccc(-c2cnc3c(NCC4CCOCC4)cc(NC4CCCOC4)nn23)cc1` (stereo not drawn) [Example 2-83] the same measures were 50 to 500 nM and 5.2 nM.
As for `CC(Nc1cc(NCC2CCOCC2)c2ncc(-c3ccc(C(=O)NC4CC4)cc3)n2n1)c1cccs1` (stereo not drawn) [Example 2-84], the results for the IC50 in the assay on A549 and on TTK were 50 to 500 nM and 7.5 nM, respectively.
In the case of `C#CC(C)(C)Nc1cc(NCC2CCOCC2)c2ncc(-c3ccc(C(=O)NC4CC4)cc3)n2n1` [Example 2-85], the figures for the half-maximal inhibitory concentration (IC50) in the assay with A549 and at TTK were 1000 to 10000 nM and 4 nM, respectively.
As to `CCC(C)Nc1cc(NCC2CCOCC2)c2ncc(-c3ccc(C(=O)NC4CC4)cc3)n2n1` (stereo not drawn) [Example 2-87, 4-(6-(sec-Butylamino)-8-((tetrahydro-2H-pyran-4-yl)methylamino)imidazo[1,2-b]pyridazin-3-yl)-N-cyclopropylbenzamide], the concentration for half-maximal inhibition (IC50) with A549 was 50 to 500 nM; on TTK, 6.2 nM.
As for `O=C(NC1CC1)c1ccc(-c2cnc3c(OCC4CCOCC4)cc(NC4CCCCC4)nn23)cc1` [Example 2-89, 4-(6-(Cyclohexylamino)-8-((tetrahydro-2H-pyran-4-yl)methoxy)imidazo[1,2-b]pyridazin-3-yl)-N-cyclopropylbenzamide], the concentration for half-maximal inhibition (IC50) was 50 to 500 nM with A549 and 5 nM at TTK.
With `O=C(NC1CC1)c1ccc(-c2cnc3c(NCC4CCOCC4)cc(Oc4ccccc4Cl)nn23)cc1` [Example 2-90, 4-(6-(2-Chlorophenoxy)-8-((tetrahydro-2H-pyran-4-yl)methylamino)imidazo[1,2-b]pyridazin-3-yl)-N-cyclopropylbenzamide], the IC50 was 50 to 500 nM in the assay on A549 and 2.7 nM at TTK.
Turning to `Nc1cccc(Oc2cc(NCC3CCOCC3)c3ncc(-c4ccc(C(=O)NC5CC5)cc4)n3n2)c1` [Example 2-91], the figures for the IC50 in the assay on A549 and at TTK were no more than 50 nM and 2.3 nM, respectively.
On to `Nc1ccc(Oc2cc(NCC3CCOCC3)c3ncc(-c4ccc(C(=O)NC5CC5)cc4)n3n2)cc1` [Example 2-92], for which the 50% inhibitory concentration (IC50) in the assay on A549 was 50 to 500 nM; on TTK, 4 nM.
Take `O=C(NC1CC1)c1ccc(-c2cnc3c(NCC4CCOCC4)cc(Oc4ccc(Cl)cc4)nn23)cc1` [Example 2-93]: the concentration for half-maximal inhibition (IC50) in the assay with A549 is 50 to 500 nM; at TTK, 3.3 nM.
For `COc1ccccc1Oc1cc(NCC2CCOCC2)c2ncc(-c3ccc(C(=O)NC4CC4)cc3)n2n1` [Example 2-95], in that order: 50 to 500 nM and 2.5 nM.
For `O=C(NC1CC1)c1ccc(-c2cnc3c(NCC4CCOCC4)cc(Oc4ccccc4C(F)(F)F)nn23)cc1` [Example 2-96], in that order: 50 to 500 nM and 7.5 nM.
For the compound `Nc1ccccc1Oc1cc(NCC2CCOCC2)c2ncc(-c3ccc(C(=O)NC4CC4)cc3)n2n1` [Example 2-97], the IC50 is no more than 50 nM with A549 and 3.3 nM on TTK.
Turning to `Nc1c(F)cccc1Oc1cc(NCC2CCOCC2)c2ncc(-c3ccc(C(=O)NC4CC4)cc3)n2n1` [Example 2-98], the IC50 in the assay on A549 was no more than 50 nM; on TTK, 2.4 nM.
Consider `Cc1ccccc1Oc1cc(NCC2CCOCC2)c2ncc(-c3ccc(C(=O)NC4CC4)cc3)n2n1` [Example 2-101], for which the IC50 in the assay on A549 is 50 to 500 nM; at TTK, 2.5 nM.
Take `Cc1cccc(Oc2cc(NCC3CCOCC3)c3ncc(-c4ccc(C(=O)NC5CC5)cc4)n3n2)c1` [Example 2-102]: the half-inhibitory concentration (IC50) in the assay on A549 was 50 to 500 nM; at TTK, 3 nM.
